Results reported in patent US20040147557A1, “Aryl piperidine derivatives as inducers of ldl-receptor expression” (priority 2003, published 2004).
Where two headings read alike, the source gives them in different places. Each block holds one compound with its values, some of them ahead of it.

Experiments:
LDL-r promoter = LDL-r promoter luciferase reporter gene assay in stably transfected HepG2 cells; type: cell-based, human; details: HepG2 cells with LDL-r promoter-luciferase construct, 24 hours incubation, RPMI medium with 2% lipoprotein-deficient serum, induction of luciferase activity, read-out: In vitro (IC50)
Method: The ability of the compounds of the invention to induce LDL-r expression by human hepatocytes in vitro is determined using a human hepatocarcinoma cell line, Hep G2, as a model system. A reporter gene assay using the LDL-r promoter in front of the reporter gene Luciferase is used as a primary screen.
HepG2 cells, stably transfected with a construct comprising the LDL-r promoter and the luciferase reporter gene, were seeded at 50.000 cells/well in 96 well plates. After 1 day, cells were incubated with compounds for 24 hours in RPMI medium containing 2% of lipoprotein-deficient serum. Compounds were tested from 10^−6M to 10^−9M. Cell lysates were prepared and the luciferase activity was measured by the luciferase assay system (Promega). Induction of luciferase activity was calculated taking untreated cells as control and ED50 of each compounds was determinated compared to the ED50 of an internal standart.

fat-fed hamsters = assay: Oral administration to fat-fed hamsters, reduction of VLD/LDL cholesterol and TG plasma levels; type: in vivo, hamster; details: hamsters fed 0.2% cholesterol and 10% coconut oil diet, once a day for 3 days, reduction in VLD/LDL cholesterol and TG plasmatic levels
Method: The in vivo profile of the compounds is evaluated by oral administration of the compounds of the invention to fat-fed hamsters. Measurements of VLD/LDL cholesterol and triglycerides upon treatment allow the activity to be determined.
Compounds were prepared for oral administration by milling with 0.5% hydroxypropylmethylcellulose and 5% Tween 80. Hamsters were fed for 2 weeks with a diet containing 0.2% of cholesterol and 10% of coconut oil. Then compounds were administrated once a day for 3 days, from 20 to 0.2 mg/kg. Plasma lipid levels including total cholesterol, VLD/LDL cholesterol, VLD/LDL triglycerides and HDL-cholesterol were determinated after ultracentrifugation (density 1.063 g/ml to separate VLD/LDL fraction and HDL fraction) using the Biomerieux enzymatic kit. Reductions in VLD/LDL cholesterol and TG plasmatic levels were calculated taking solvant treated animals as control and ED50 of each compound was determined.

melting point: 179 to 180 °C
SMILES: CCOc1cc(CC)ccc1C1CCN(CCCCNC(=O)c2ccc(-c3ccc(S(C)(=O)=O)cc3)cc2)CC1 [Example 12, 4′-Methanesulfonyl-biphenyl-4-carboxylic Acid {4-[4-(2-ethoxy-4-ethyl-phenyl)-piperidin-1-yl]-butyl}-amide]

IC50 (LDL-r promoter; Homo sapiens): 10 nM
melting point: 165 °C
SMILES: CCOc1cc(CC)ccc1C1CCN(CCCCNC(=O)c2ccc(-c3ccc(C#N)cc3)cc2)CC1 [Example 5, 4′-Cyano-biphenyl-4-carboxylic Acid {4-[4-(2-ethoxy-4-ethyl-phenyl)-piperidin-1-yl]-butyl}-amide]
ED50 (fat-fed hamsters; Mesocricetus auratus, 72 h, read-out: In vivo (ED50)): 2 mg/kg

melting point: 252 °C
SMILES: CCc1ccc(C2CCN(CCCCNC(=O)c3ccc(-c4ccc(C#N)cc4)cc3)CC2)c(O)c1 [Example 14, 4′-Cyano-biphenyl-4-carboxylic Acid {4-[4-(2-hydroxy-4-ethyl-phenyl)-piperidin-1-yl]-butyl}-amide]

melting point: 184 °C
SMILES: Cc1ccc(C2CCN(CCCCNC(=O)c3ccc(-c4ccc(C#N)cc4)cc3)CC2)c(O)c1 [Example 18, 4′-Cyano-biphenyl-4-carboxylic Acid {4-[4-(2-hydroxy-4-methyl-phenyl)-piperidin-1-yl]-butyl}-amide]

SMILES: COc1c(C2CCN(CCCCNC(=O)c3ccc(-c4ccc(C#N)cc4)cc3)CC2)ccc2c1CCCC2 [Example 11, 4′-Cyano-biphenyl-4-carboxylic Acid {4-[4-(1-methoxy-5,6,7,8-tetrahydro-naphtalen-2-yl)-piperidin-1-yl]-butyl}-amide]
IC50 (LDL-r promoter): 10 nM
In vivo (ED50) (fat-fed hamsters): 1 mg/kg

melting point: 247 to 249 °C
SMILES: CCc1ccc(C2CCN(CCCCNC(=O)c3ccc(-c4ccc(C(F)(F)F)cc4)cc3)CC2)c(OCC2CC2)c1 [Example 2, 4′-Trifluoromethyl-biphenyl-4-carboxylic Acid [4-[4-(2-cyclopropylmethoxy-4-ethyl-phenyl)-piperidin-1-yl]-butyl]-amide]

SMILES: COc1c(C2CCN(CCCCNC(=O)c3ccc(-c4ccc(Cl)cc4)cc3)CC2)ccc2ccccc12 [Example 3, 4′-Chloro-biphenyl-4-carboxylic Acid {4-[4-(1-methoxy-naphtalen-2-yl)-piperidin-1-yl]-butyl}-amide]
IC50 (LDL-r promoter): 10 nM
In vivo (ED50) (fat-fed hamsters): 2 mg/kg
